Data as given in patent US8173634B2, “Polymorphic form of 1-(4-{1-[(E)-4-cyclohexyl-3-trifluoromethyl-benzyloxyimino]-ethyl}-2-ethyl-benzyl)-azetidine-3-carboxylic” (Novartis AG, priority 2008, dated 2012).
In brackets after ≈: the same amount, converted by molar mass.

Tests used:
[1] = Intrinsic dissolution rate (Vankel punch and die, fiber optics UV at 260 nm, 200 rpm, 37°C); type: physicochemical; conditions: for Intrinsic dissolution rate: 37°C, 200 rpm
Description: (§1) The solubility and dissolution rate of the Crystalline form A of the free base of compound I prepared as described in Example 1 were tested in various solvents.
(§2) For solubility measurements, excess Form A of the free base of compound I was added to the test solvents and equilibrated for 8 days at 25° C.±0.5° C. and 4 days at 37±0.5° C. Slurries were filtered and the filtrate saved for HPLC solubility determinations. Dissolution rate measurements were carried out in 0.5 cm^2 Vankel punch and die assemblies and a pellet pressure of 2000 pounds. The dissolution was measured using fiber optics dissolution system (C technologies Inc.) and a Cary UV/VIS spectrophotometer, with a stirring rate of 200 rpm. The solution medium was held at 37±0.5° C. and the concentration measurements were made at 260 nm.

[2] = Solubility of Crystalline Form A in test solvents (excess solid equilibrated, filtrate by HPLC); type: physicochemical; conditions: for pH of final solution: 25°C solubility test; for solubility at 8 days: 25°C, equilibrated 8 days; for solubility at 4 days: 37°C, equilibrated 4 days
Description: as §1, §2

Intrinsic dissolution rate ([1]; 0.01N HCl + SDS (0.1%)): 0.0245 mg min^−1 cm^−2
Intrinsic dissolution rate ([1]; 0.1N HCl + SDS (0.1%)): 0.0368 mg min^−1 cm^−2
Intrinsic dissolution rate ([1]; Water + SDS (0.1%)): 0.0098 mg min^−1 cm^−2
Dissolution (overall assessment) ([1]; summary of Table 4): relatively quick dissolution
pH of final solution ([2]; 0.01N HCL): 2.24
pH of final solution ([2]; 0.01N HCl + SDS (0.1%)): 2.33
pH of final solution ([2]; 0.1N HCl + SDS (0.1%)): 1.48
pH of final solution ([2]; 0.1N HCl): 1.49
pH of final solution ([2]; Phosphate buffer, pH 6.8): 7.02
pH of final solution ([2]; Water + SDS (0.1%)): 7.02
pH of final solution ([2]; Water): 6.28
solubility at 8 days ([2]; aqueous buffer, thermodynamic from solid, Phosphate buffer, pH 6.8): 0.47 µg/mL (≈ 0.91 µM)
solubility at 8 days ([2]; aqueous with cosolvent or surfactant or cyclodextrin, thermodynamic from solid, Acetonitrile/water (1:1 v/v)): > 40000 µg/mL
solubility at 8 days ([2]; aqueous with cosolvent or surfactant or cyclodextrin, thermodynamic from solid, Ethanol/water (1:1 v/v)): 13900 µg/mL (≈ 26900 µM)
solubility at 8 days ([2]; organic solvent or mixture, thermodynamic from solid, Ethanol): 47600 µg/mL (≈ 92100 µM)
solubility at 8 days ([2]; organic solvent or mixture, thermodynamic from solid, acetonitrile): 610 µg/mL (≈ 1180 µM)
solubility at 8 days ([2]; pH 1.48, aqueous with cosolvent or surfactant or cyclodextrin, thermodynamic from solid, 0.1N HCl + SDS (0.1%)): 22 µg/mL
solubility at 8 days ([2]; pH 1.49, simulated gastric fluid, thermodynamic from solid, 0.1N HCl): 1.5 µg/mL (≈ 2.9 µM)
solubility at 8 days ([2]; pH 2.24, simulated gastric fluid, thermodynamic from solid, 0.01N HCL): 0.6 µg/mL (≈ 1.16 µM)
solubility at 8 days ([2]; pH 2.33, aqueous with cosolvent or surfactant or cyclodextrin, thermodynamic from solid, 0.01N HCl + SDS (0.1%)): 994 µg/mL
solubility at 8 days ([2]; pH 6.28, thermodynamic from solid, Water): 33 µg/mL (≈ 63.9 µM)
solubility at 8 days ([2]; pH 7.02, aqueous with cosolvent or surfactant or cyclodextrin, thermodynamic from solid, Water + SDS (0.1%)): 1190 µg/mL
solubility at 4 days ([2]; simulated gastric fluid, thermodynamic from solid, 0.01N HCl): < 0.5 µg/mL
solubility at 4 days ([2]; simulated gastric fluid, thermodynamic from solid, 0.1N HCl): 1.9 µg/mL (≈ 3.68 µM)
Solubility (overall assessment) ([2]; summary of Tables 2-3): good solubility
solubility at 4 days ([2]; thermodynamic from solid, water): 106 µg/mL (≈ 205 µM)
Compound: CCc1cc(/C(C)=N/OCc2ccc(C3CCCCC3)c(C(F)(F)F)c2)ccc1CN1CC(C(=O)O)C1 [Compound I, 1-(4-{1-[(E)-4-cyclohexyl-3-trifluoromethyl-benzyloxyimino]-ethyl}-2-ethyl-benzyl)-azetidine-3-carboxylic acid]
